From patent publication US12533390B2, “Methods and compositions for treatment of Endothelin B receptor expressing tumors” (ENB Therapeutics, Inc., priority 2015, dated 2026)
“Also recorded” adds a separate entry of the source.

Legend:
[1] = test system: melanoma cell lines overexpressing ETBR; test: Mouse melanoma brain metastasis model, xenografts of ETBR-overexpressing melanoma cell lines; type: in vivo, mice; details: A192621 60 mg/kg/day
Method: FIGS. 5A, 5B, 5C, 5D, and 5E. ETBR antagonist inhibits melanoma brain metastasis in mice. […] In this study, lentiviral vectors were used to overexpress ETBR in melanoma cell lines, which were in turn used to implant xenografts in mice.
A192621 inhibits melanoma brain metastasis in mice (FIGS. 5A, 5B, 5C, 5D, and 5E). […] A192621 was administered at a dose of 60 mg/kg/day using a mouse melanoma model. […] In this study, lentiviral vectors were used to overexpress ETBR in melanoma cell lines, which were in turn used to implant xenografts in mice. […]

[2] = test system: A375 human melanoma cells; test: Subcutaneous A375 human melanoma xenograft in Nu/J nude mice; type: in vivo; details: Dabrafenib 100 mg/Kg PO daily, alone or with BQ788 600 ng IP TIW; A375 tumors 150-200 mm3 at start
Method: FIG. 7. BQ788 synergizes with Dabrafenib in vivo. A375 human melanoma cells were implanted subcutaneously into the rear flank of Nu/J nude mice and allowed to grow to 150 mm3-200 mm3 prior to randomization and initiation of treatment. The mice received the following treatments: (1) vehicle (n=8), (2) Dabrafenib 100 mg/Kg PO daily (n=5), and (3) Dabrafenib+BQ788 600 ng IP TIW (n=5).
BQ788 synergizes with a bRAF inhibitor in vivo (FIG. 7). A375 human melanoma cells (3×10^6) were implanted subcutaneously into the rear flank of Nu/J nude mice and allowed to grow to 150 mm3-200 mm3 prior to randomization and initiation of treatment. The treatment groups were as follows: (1) vehicle (n=8), Dabrafenib 100 mg/Kg PO daily (n=5), (2) Dabrafenib+BQ788 600 ng IP 3 x per week (n=5).

[3] = test system: SKMEL28 human melanoma cells; test: SKMEL28 human melanoma xenograft in mice, tumor weight and lung metastases; type: in vivo
Method: BQ788 inhibits melanoma growth and metastasis (FIGS. 4A and 4B). […] Mice were implanted with 1×10^6 SKMEL28 human melanoma cells. Tumors were established for 10 days until palpable then 120 ng ([…]) BQ788 dissolved in DMSO was injected IP 3× per week x 6 weeks. Mice were then sacrificed and lungs harvested and tumors weighed. A 75% reduction in tumor weight was observed.

[4] = biological target: T1, ETBR (Homo sapiens, UniProt P24530); details: ETBR antagonist, no method given, cited from earlier work
T1 sequence (P24530 27-442): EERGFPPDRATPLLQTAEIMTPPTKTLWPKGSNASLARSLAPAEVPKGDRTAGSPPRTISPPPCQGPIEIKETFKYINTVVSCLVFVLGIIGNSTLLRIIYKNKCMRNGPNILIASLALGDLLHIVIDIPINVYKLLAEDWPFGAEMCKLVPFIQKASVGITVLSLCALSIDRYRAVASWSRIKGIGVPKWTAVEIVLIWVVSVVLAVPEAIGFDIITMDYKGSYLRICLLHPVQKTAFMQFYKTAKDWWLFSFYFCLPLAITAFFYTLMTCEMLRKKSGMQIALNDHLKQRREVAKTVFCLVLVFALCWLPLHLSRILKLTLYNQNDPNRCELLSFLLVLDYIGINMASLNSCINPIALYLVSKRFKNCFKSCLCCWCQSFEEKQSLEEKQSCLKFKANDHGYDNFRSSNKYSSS

[5] = Body weight of athymic nude mice under intranasal BQ788 over 42 days; type: in vivo
Method: FIG. 9. ETAR antagonist and Niacinamide mitigate weight loss from BQ788. Six week old athymic nude mice were administered the ETBR antagonist BQ788 intranasally in 20% DMSO at the indicated ascending doses over a period of 42 days. One group was additionally administered the ETAR antagonist Macitentan orally at a dose of 5 mg/kg daily. The drinking water of these mice was supplemented with the B vitamin niacinamide at a concentration of 0.3 mg/mL. […] Animals thus treated were able to maintain body weight throughout the study. Co-administration of ETAR antagonists and niacinamide with ETBR antagonists mitigated the adverse effects of ETBR antagonists when administered for therapeutic purposes.
ETAR antagonist and Niacinamide mitigate weight loss from BQ788 ([…]). Six week old athymic nude mice (n=3 per group) were administered the ETBR antagonist BQ788 intranasally in 20% DMSO at the indicated ascending doses over a period of 42 days. One group was additionally administered the ETAR antagonist Macitentan orally at a dose of 5 mg/kg daily. The drinking water of these mice was supplemented with the B vitamin niacinamide at a concentration of 0.3 mg/mL. […] Animals thus treated were able to maintain body weight throughout the study. […]

CCCOc1ccc([C@H]2[C@H](C(=O)O)[C@@H](c3ccc4c(c3)OCO4)CN2CC(=O)Nc2c(CC)cccc2CC)cc1 [A192621, (2R,3R,4S)-4-(1,3-benzodioxol-5-yl)-1-[2-(2,6-diethylanilino)-2-oxoethyl]-2-(4-propoxyphenyl) pyrrolidine-3-carboxylic acid]
CNS melanoma tumors [1]: shrinks CNS melanoma tumors
brain melanoma metastases [1]: shrinks brain melanoma metastases
survival [1]: increases survival

CC(C)(C)c1nc(-c2cccc(NS(=O)(=O)c3c(F)cccc3F)c2F)c(-c2ccnc(N)n2)s1 [Dabrafenib]
tumor growth [2]: retarded the growth of tumors; also recorded: retarded tumor growth

CCCC[C@@H](NC(=O)[C@@H](Cc1cn(C(=O)OC)c2ccccc12)NC(=O)[C@H](CC(C)(C)C)NC(=O)N1[C@H](C)CCC[C@@H]1C)C(=O)[O][Na+] [BQ788]
reduction in tumor weight ([3]; 120 ng (~60 μg/kg) BQ788 in DMSO IP 3x per week x 6 weeks, SKMEL28 tumors in mice): 75%
clearance of lung metastases ([3]; 120 ng BQ788 IP 3x per week x 6 weeks, lung specimens vs control mice): > 95%
IC50 ([4]; for BQ788 printed as inhibitor of ETBR-related melanoma cell growth): 1.2 nM
Ki [4]: 17.8 nM
average weight loss relative to baseline body weight ([5]; BQ788 alone intranasally in 20% DMSO, ascending doses, end of 42 day study): 5%
effect on body weight / thriving ([5]; BQ788 intranasally, ascending doses over 42 days, with or without Macitentan 5 mg/kg orally daily and niacinamide 0.3 mg/mL in drinking water): failed to thrive
